Assay results reported in article PMC4706618, “Comparison of bactericidal and cytotoxic activities of trichogin analogs” (Data in Brief, 2015).
Converted amounts (≈) assume the structure as drawn. Like-named read-outs stand apart in the source and are kept apart here. Non-standard residues stand in square brackets, D forms with d. Residues, ends and D or L forms follow the SMILES beside them. *: point of attachment. Leu(ol) = CC(C)C[C@H](N)CO; Octanoyl = CCCCCCCC(=O)*; Aib = CC(C)(N)C(=O)O

Key:
[1] = system: S. aureus, ATCC BAA-44 (methicillin-resistant strain); assay type: cell-based, Staphylococcus aureus
Description: (§1) E. coli ATCC 25922, the methicillin-resistant strain of S. aureus, ATCC BAA-44, P. aeruginosa ATCC 25668 and S. epidermidis ATCC 700565 was a kind gift of Prof. Elena Reddi (Dept. of Biology, University of Padova, Italy). Cultures were maintained in Luria Bertani (LB) agar. MICs (Minimal inhibitory concentrations) of the peptides were determined using the broth microdilution method. Two-fold serial dilutions of each peptide, from 1 to 64 μM, were prepared in LB and 50 μl per well were arranged in sterile 96-well plates (Falcon). Then, an aliquot of bacterial cell suspension was added to each well, at a final concentration of 5×10^5 CFU/ml.

[2] = system: S. epidermidis ATCC 700565; assay type: cell-based, Staphylococcus epidermidis
Description: as §1

P. aeruginosa ATCC 25668 = assay type: cell-based, Pseudomonas aeruginosa
Description: as §1

[3] = system: human cells (lymphocytes, PMNs, monocytes, HL60, HeLa, A431, A549, CCD34Lu); assay: Cytotoxicity on human cells, MTS reduction and LDH release; assay type: cell-based; details: 24 h, MTS/LDH EC50, all tested cells; in words
Description: (§2) To monitor the possible differential cytocidal effect of trichogin and its analogs on human cells (healthy and cancer cells, non-leukocytes and leukocytes), we incubated the peptides with (i) primary human leukocytes (lymphocytes, PMNs and monocytes), freshly isolated from blood of healthy donors (ii) the monocytes-like HL60 cell line from human myeloid leukemia, and (iii) three tumor-derived non-leukocyte cells lines: HeLa ([…]), A431 (human epidermoid carcinoma) and A549 (human lung carcinoma) and the in vitro stabilized line CCD34Lu (from human normal lung).
(§3) HeLa, A431 and CCD34-Lu cells were maintained in DMEM medium (Gibco), A549 in F12 medium (Gibco) and HL60 in RPMI medium (Gibco), supplemented with 10% FCS (Euroclone) and antibiotics (penicillin and streptomycin, 100 U/ml, Invitrogen) at 37 °C in a humidified atmosphere containing 5% (v/v) CO2; cells were split every 2–3 days. Human monocytes, polymorphonuclear leukocytes (PMNs) and lymphocytes were purified from buffy coats of healthy donors, kindly provided by the Centro Immunotrasfusionale, Hospital of Padova. Briefly, for monocyte purification, peripheral blood mononuclear cells (PBMC) were isolated from buffy coats of healthy donors by density gradient centrifugation on Ficoll-Paque Plus (GE Health care), which density is optimized for the isolation of mononuclear cells. Separate monocyte and T-cell fractions were obtained from PBMCs by Percoll density gradient centrifugation (GE Health care); residual lymphocytes were removed by incubation in 2% fetal calf serum (FCS) RPMI at 37 °C and subsequently washed to eliminate non adherent cells. Unless otherwise specified, cells were kept at 37 °C in a humidified atmosphere containing 5% (v/v) CO2 in RPMI-1640 supplemented with 10% FCS. For PMNs purification, the pellet of cells obtained after the centrifugation on Ficoll gradient was subjected to dextran erythrocytes precipitation; residual erythrocytes were removed by hypotonic lysis in 155 mM NH4Cl, 10 mM KHCO3, and […] Na2EDTA at pH 7.4 and cells were cultured in RPMI medium, supplemented with 10% FCS. For lymphocytes preparation, buffy coats were incubated with 50 μl/ml of Rosette Sep® Human T Cell Enrichment Cocktail (StemCell Technologies). Blood was then centrifuged over a Ficoll gradient and cells were cultured in RPMI medium, supplemented with 10% FCS.
(§4) Twenty-four hours before the experiment, A431, HeLa, A549 and CC34-Lu cells were detached by means of trypsin treatment (Gibco), counted and seeded onto a 96 wells/plate (8×10^3 cells/well, Falcon). After purification, monocytes were seeded onto a 96 wells/plate (2×10^6/well) and left to adhere to the plastic; then cells were immediately treated with stimuli. PMNs and lymphocytes (2×10^6 cells/well) and HL60 cells (40×10^3) were seeded onto cell plates and subsequently treated. Different peptides were diluted in culture medium (from 20 μM to 1 μM) and added to the cells. As a […] control cells were treated with medium without stimuli. Twenty-four hours after treatment, the cell supernatant was collected for subsequent assay (LDH assay) and cells were tested using a CellTiter 96® AQueous One Solution Reagent (Promega). Plates were read with an ELISA reader (Amersham Biosciences) at 492 nm. Data were expressed as % of absorbance value compared to untreated cells (assumed as 100% viable). Alternatively, the EC50 (the concentration of drug where 50% of cells died) was calculated for each peptide and each kind of tested cell.
(§5) 50 μl of the cell supernatant was tested with a CytoTox 96® Non-Radioactive Cytotoxicity Assay kit (Promega). EC50 (the concentration of drug that induced the lysis of 50% of the total cell number) was calculated for each peptide and each kind of tested cell.

[4] = system: Gram^− and Gram^+ bacteria; assay: Antibacterial activity, all strains taken together; assay type: cell-based; details: additional U at position 6 or U1 replaced with L; in words
Description: as §1

E. coli ATCC 25922 = assay type: cell-based, Escherichia coli
Description: as §1

[5] = Cytotoxicity on human cells, MTS reduction and LDH release; assay type: cell-based; details: human, from MTS and LDH EC50 values, compared with trichogin, all cell models, read-out: reduction of cytocidal effect / cell toxicity (% inhibition)
Description: as §2, §3, §4, §5

HeLa cells [6] = assay: Cytotoxicity on HeLa cells, MTS/LDH; assay type: cell-based, human; details: 24 h, in words
Description: as §4, §5

HeLa cells [7] = assay: Propidium iodide / Annexin V assay (FACS); assay type: cell-based, human; details: 18 h treatment, up to 20 μM, in words
Description: HeLa cells were seeded on 24-wells plastic trays (Falcon) the day before the experiment, while HL60 were used directly. Cells were treated for 18 h with different trichogin analogs (up to 20 μM); then they were washed with PBS, detached with trypsin (in the case of HeLa cells), centrifuged at 200g for 5 min, suspended in 50 μl of incubation buffer and incubated for 15 min at 37 °C with 2 μl of Annexin-V-Fluos (Roche). Cells were finally diluted in 250 μl of the incubation buffer and 15 μl of Propidium Iodide (Sigma) were added to each sample just before the acquisition with FACSCanto® (Beckton Dickinson). Percentage of healthy (Annexin V^−/PI^−), apoptotic (Annexin V^+/PI^−), oncotic (Annexin V^−/PI^+) and late apoptotic/abortive oncotic (Annexin V^+/PI^+) cells of the total (10^6 cells) was calculated using FACSDiva Software.

[8] = after 24 h at 37 °C, broth microdilution in LB, 5×10^5 CFU/ml, ±SE, N≥4, peptide dose range 0–64 µM

Row | SMILES | MIC S. aureus ([1]; ATCC BAA-44, 24 h) [µM] | MIC S. epidermis ([2]; ATCC 700565, 24 h) [µM] | MIC P. aeruginosa (P. aeruginosa ATCC 25668; ATCC 25668, 24 h) [µM] | cytotoxicity compared with trichogin or the corresponding analog [3] | antibacterial activity compared with the K-containing analogs [4] | MIC E. coli (E. coli ATCC 25922; ATCC 25922, 24 h) [µM] | inhibition at 24 h [5] [%] | MIC S. aureus [1, 8] [µM] | MIC S. epidermis [2, 8] [µM] | MIC P. aeruginosa (P. aeruginosa ATCC 25668; [8]) [µM] | toxicity to HeLa cells compared with trichogin (HeLa cells [6]) | MIC E. coli (E. coli ATCC 25922; [8]) [µM] | type and extent of HeLa cell death, PI/Annexin V labeling (HeLa cells [7]) | change of anti S. aureus activity compared with trichogin ([1]; MIC after 24 h, in words)
1 | CCCCCCCC(=O)NC(C)(C)C(=O)N[C@@H](CCCCN)C(=O)N[C@@H](CC(C)C)C(=O)NC(C)(C)C(=O)N[C@@H](CCCCN)C(=O)NC(C)(C)C(=O)N[C@@H](CC(C)C)C(=O)NC(C)(C)C(=O)N[C@@H](CCCCN)C(=O)N[C@H](C(=O)N[C@H](CO)CC(C)C)[C@@H](C)CC [K2K5K9U6] (Octanoyl-[Aib]KL[Aib]K[Aib]L[Aib]KI[Leu(ol)]) | 4 ± 0 (≈ 5.23 µg/mL) | 8 ± 0 (≈ 10.5 µg/mL) | 8 ± 0 (≈ 10.5 µg/mL) | increased cytotoxicity | failed to increase the antibacterial activity | 8 ± 0 (≈ 10.5 µg/mL) |  |  |  |  |  |  |  | 
2 | CCCCCCCC(=O)NC(C)(C)C(=O)NCC(=O)N[C@@H](CC(C)C)C(=O)NC(C)(C)C(=O)N[C@@H](CCCCN)C(=O)N[C@@H](CCCCN)C(=O)N[C@@H](CC(C)C)C(=O)NC(C)(C)C(=O)NCC(=O)N[C@H](C(=O)N[C@H](CO)CC(C)C)[C@@H](C)CC [K5K6] | 4 ± 0 (≈ 4.83 µg/mL) | 4 ± 1 (≈ 4.83 µg/mL) | 16 ± 0 (≈ 19.3 µg/mL) |  |  | 16 ± 0 (≈ 19.3 µg/mL) | 50 to 60 |  |  |  |  |  |  | 
3 | CCCCCCCC(=O)NC(C)(C)C(=O)NCC(=O)N[C@@H](CC(C)C)C(=O)NC(C)(C)C(=O)N[C@@H](CCCCN)C(=O)NC(C)(C)C(=O)N[C@@H](CC(C)C)C(=O)NC(C)(C)C(=O)NCC(=O)N[C@H](C(=O)N[C@H](CO)CC(C)C)[C@@H](C)CC [K5U6] (Octanoyl-[Aib]GL[Aib]K[Aib]L[Aib]GI[Leu(ol)]) |  |  |  | increased cytotoxicity | failed to increase the antibacterial activity |  |  | 3.8 ± 2.4 (≈ 4.43 µg/mL) | 2.4 ± 0.9 (≈ 2.8 µg/mL) | >64 | significantly more effective in killing HeLa cells | >64 | predominantly a late apoptotic phenotype but also significant necrosis | 
4 | CCCCCCCC(=O)N[C@@H](CC(C)C)C(=O)N[C@@H](CCCCN)C(=O)N[C@@H](CC(C)C)C(=O)NC(C)(C)C(=O)NCC(=O)NCC(=O)N[C@@H](CC(C)C)C(=O)NC(C)(C)C(=O)NCC(=O)N[C@H](C(=O)N[C@H](CO)CC(C)C)[C@@H](C)CC [L1K2] (Octanoyl-LKL[Aib]GGL[Aib]GI[Leu(ol)]) | 4.6 ± 1.5 (≈ 5.36 µg/mL) | 4.7 ± 1.6 (≈ 5.48 µg/mL) | >64 | not significantly different | failed to increase the antibacterial activity | 22.9 ± 8.6 (≈ 26.7 µg/mL) |  |  |  |  |  |  |  | 
5 | CCCCCCCC(=O)N[C@@H](CC(C)C)C(=O)NCC(=O)N[C@@H](CC(C)C)C(=O)NC(C)(C)C(=O)NCC(=O)NCC(=O)N[C@@H](CC(C)C)C(=O)NC(C)(C)C(=O)N[C@@H](CCCCN)C(=O)N[C@H](C(=O)N[C@H](CO)CC(C)C)[C@@H](C)CC [L1K9] (Octanoyl-LGL[Aib]GGL[Aib]KI[Leu(ol)]) |  |  |  | not significantly different | failed to increase the antibacterial activity |  |  | 4.7 ± 1.6 (≈ 5.48 µg/mL) | 4.6 ± 1.5 (≈ 5.36 µg/mL) | >64 |  | 41.1 ± 15.6 (≈ 47.9 µg/mL) |  | 
6 | CCCCCCCC(=O)N[C@@H](CC(C)C)C(=O)NCC(=O)N[C@@H](CC(C)C)C(=O)N[C@@H](CC(C)C)C(=O)NCC(=O)NCC(=O)N[C@@H](CC(C)C)C(=O)N[C@@H](CC(C)C)C(=O)NCC(=O)N[C@H](C(=O)N[C@H](CO)CC(C)C)[C@@H](C)CC [L1L4L8] (Octanoyl-LGLLGGLLGI[Leu(ol)]) |  |  |  |  |  |  | 50 to 70 |  |  |  |  |  |  | 
7 | CCCCCCCC(=O)N[C@@H](CC(C)C)C(=O)NCC(=O)N[C@@H](CC(C)C)C(=O)NC(C)(C)C(=O)NCC(=O)NCC(=O)N[C@@H](CC(C)C)C(=O)NC(C)(C)C(=O)NCC(=O)N[C@H](C(=O)N[C@H](CO)CC(C)C)[C@@H](C)CC [L1] (Octanoyl-LGL[Aib]GGL[Aib]GI[Leu(ol)]) |  |  |  | weakly affected |  |  |  | 32 ± 0 (≈ 35 µg/mL) | >64 | >64 |  | >64 | as effective as trichogin in killing HeLa cells | 
8 | CCCCCCCC(=O)NC(C)(C)C(=O)NCC(=O)N[C@@H](CC(C)C)C(=O)N[C@@H](CC(C)C)C(=O)NCC(=O)NCC(=O)N[C@@H](CC(C)C)C(=O)NC(C)(C)C(=O)NCC(=O)N[C@H](C(=O)N[C@H](CO)CC(C)C)[C@@H](C)CC [L4] (Octanoyl-[Aib]GLLGGL[Aib]GI[Leu(ol)]) |  |  |  |  |  |  | 50 to 70 | >64 | >64 | >64 |  | >64 |  | no such increase
